Experimental data from ChEMBL document CHEMBL1143629, “Synthesis and antibacterial activity of 1-(2-fluorovinyl)-7-substituted-4-quinolone-3-carboxylic acid derivatives, conformationally restricted analogues of fleroxacin” (J Med Chem, 2005).
Values after ≈ are worked out from the molar mass of the structure shown.

What was measured:
Pseudomonas aeruginosa = assay: In vitro minimum inhibitory concentration against Pseudomonas aeruginosa IID1210; format: functional
Streptococcus pneumoniae = assay: In vitro minimum inhibitory concentration against Streptococcus pneumoniae type III; format: functional
Staphylococcus aureus = assay: In vitro minimum inhibitory concentration against Staphylococcus aureus Smith; format: functional
Escherichia coli = assay: In vitro minimum inhibitory concentration against Escherichia coli NIHJ JC-2; format: functional
DNA gyrase = DNA gyrase (Staphylococcus aureus, UniProt P0A0K8+P20831); assay: Inhibitory concentration against DNA gyrase of Staphylococcus aureus; format: protein-complex assay
DNA gyrase, sequence (P0A0K8 whole entry): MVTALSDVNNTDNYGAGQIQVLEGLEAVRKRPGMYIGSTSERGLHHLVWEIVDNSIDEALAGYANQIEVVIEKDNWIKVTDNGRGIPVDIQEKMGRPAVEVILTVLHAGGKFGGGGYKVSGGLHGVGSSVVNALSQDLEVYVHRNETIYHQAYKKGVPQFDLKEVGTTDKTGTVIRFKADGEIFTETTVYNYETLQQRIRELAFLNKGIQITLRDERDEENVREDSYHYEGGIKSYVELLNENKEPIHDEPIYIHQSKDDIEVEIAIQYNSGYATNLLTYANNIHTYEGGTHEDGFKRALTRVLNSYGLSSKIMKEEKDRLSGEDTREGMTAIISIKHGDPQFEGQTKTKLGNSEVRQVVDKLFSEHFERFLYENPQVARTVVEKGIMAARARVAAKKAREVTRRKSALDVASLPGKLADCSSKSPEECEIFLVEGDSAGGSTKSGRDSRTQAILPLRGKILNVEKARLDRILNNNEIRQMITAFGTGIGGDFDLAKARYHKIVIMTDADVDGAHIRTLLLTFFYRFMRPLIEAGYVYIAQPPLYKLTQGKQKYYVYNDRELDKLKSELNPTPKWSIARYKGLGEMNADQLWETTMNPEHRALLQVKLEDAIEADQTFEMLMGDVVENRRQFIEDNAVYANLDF
DNA gyrase, sequence (P20831 whole entry): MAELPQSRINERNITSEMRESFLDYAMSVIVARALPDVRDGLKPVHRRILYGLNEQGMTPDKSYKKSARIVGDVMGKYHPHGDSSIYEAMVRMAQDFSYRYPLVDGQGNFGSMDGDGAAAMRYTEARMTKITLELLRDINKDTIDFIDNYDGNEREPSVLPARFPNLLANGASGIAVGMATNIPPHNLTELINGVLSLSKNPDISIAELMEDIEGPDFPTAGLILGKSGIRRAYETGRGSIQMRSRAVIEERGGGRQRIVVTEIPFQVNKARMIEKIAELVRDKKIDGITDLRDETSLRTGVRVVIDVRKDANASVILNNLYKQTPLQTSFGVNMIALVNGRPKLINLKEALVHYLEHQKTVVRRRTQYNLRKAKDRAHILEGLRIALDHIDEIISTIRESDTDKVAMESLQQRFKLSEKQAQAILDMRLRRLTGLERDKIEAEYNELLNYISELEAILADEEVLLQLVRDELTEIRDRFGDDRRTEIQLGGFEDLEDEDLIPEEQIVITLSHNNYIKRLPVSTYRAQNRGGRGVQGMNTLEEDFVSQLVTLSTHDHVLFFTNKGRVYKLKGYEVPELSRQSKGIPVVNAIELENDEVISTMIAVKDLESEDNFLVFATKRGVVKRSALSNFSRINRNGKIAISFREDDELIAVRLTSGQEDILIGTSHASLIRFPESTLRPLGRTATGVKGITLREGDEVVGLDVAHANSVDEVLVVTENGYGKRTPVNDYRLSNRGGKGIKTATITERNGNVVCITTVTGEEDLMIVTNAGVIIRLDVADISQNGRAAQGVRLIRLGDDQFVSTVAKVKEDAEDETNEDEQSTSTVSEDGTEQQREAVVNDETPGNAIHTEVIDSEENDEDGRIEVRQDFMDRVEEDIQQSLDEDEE

| SMILES | MIC (Pseudomonas aeruginosa) | MIC (Streptococcus pneumoniae) | MIC (Staphylococcus aureus) | MIC (Escherichia coli) | IC50 (DNA gyrase) |
| --- | --- | --- | --- | --- | --- |
| COc1c(N2CCC(N)C2)c(F)cc2c(=O)c(C(=O)O)cn(/C=C/F)c12 (centres undefined) | 6.25 µg/mL (≈ 17.1 µM) | 12.5 µg/mL (≈ 34.2 µM) | 6.25 µg/mL (≈ 17.1 µM) | 0.1 µg/mL (≈ 0.274 µM) |  |
| NC1CCN(c2cc3c(cc2F)c(=O)c(C(=O)O)cn3/C=C/F)C1 (centres undefined) | 3.13 µg/mL (≈ 9.33 µM) | 6.25 µg/mL (≈ 18.6 µM) | 1.56 µg/mL (≈ 4.65 µM) | 0.2 µg/mL (≈ 0.596 µM) |  |
| NC1CCN(c2cc3c(cc2F)c(=O)c(C(=O)O)cn3/C=C\F)C1 (centres undefined) | 0.78 µg/mL (≈ 2.33 µM) | 3.13 µg/mL (≈ 9.33 µM) | 0.39 µg/mL (≈ 1.16 µM) | 0.05 µg/mL (≈ 0.149 µM) |  |
| COc1c(N2CCN(C)CC2)c(F)cc2c(=O)c(C(=O)O)cn(/C=C\F)c12 | 3.13 µg/mL (≈ 8.25 µM) | 3.13 µg/mL (≈ 8.25 µM) | 0.39 µg/mL (≈ 1.03 µM) | 0.025 µg/mL (≈ 0.0659 µM) |  |
| CN1CCN(c2c(F)cc3c(=O)c(C(=O)O)cn(/C=C\F)c3c2F)CC1 | 1.56 µg/mL (≈ 4.25 µM) | 3.13 µg/mL (≈ 8.52 µM) | 0.39 µg/mL (≈ 1.06 µM) | 0.025 µg/mL (≈ 0.0681 µM) | 197 µM |
| NC1CCN(c2c(F)cc3c(=O)c(C(=O)O)cn(/C=C\F)c3c2F)C1 (centres undefined) | 0.39 µg/mL (≈ 1.1 µM) | 0.78 µg/mL (≈ 2.21 µM) | 0.2 µg/mL (≈ 0.566 µM) | 0.05 µg/mL (≈ 0.142 µM) |  |
| CN1CCN(c2cc3c(cc2F)c(=O)c(C(=O)O)cn3/C=C\F)CC1 | 1.56 µg/mL (≈ 4.47 µM) | 3.13 µg/mL (≈ 8.96 µM) | 0.2 µg/mL (≈ 0.573 µM) | 0.025 µg/mL (≈ 0.0716 µM) |  |
| CN1CCN(c2cc3c(cc2F)c(=O)c(C(=O)O)cn3/C=C/F)CC1 | 6.25 µg/mL (≈ 17.9 µM) | 100 µg/mL (≈ 286 µM) | 3.13 µg/mL (≈ 8.96 µM) | 0.2 µg/mL (≈ 0.573 µM) |  |
| CN1CCN(c2c(F)cc3c(=O)c(C(=O)O)cn(/C=C/F)c3c2F)CC1 | 12.5 µg/mL (≈ 34 µM) | > 50 µg/mL | 12.5 µg/mL (≈ 34 µM) | 0.39 µg/mL (≈ 1.06 µM) | 1810 µM |
| NC1CCN(c2c(F)cc3c(=O)c(C(=O)O)cn(/C=C/F)c3c2F)C1 (centres undefined) | 1.56 µg/mL (≈ 4.42 µM) | 12.5 µg/mL (≈ 35.4 µM) | 3.13 µg/mL (≈ 8.86 µM) | 0.2 µg/mL (≈ 0.566 µM) |  |
| COc1c(N2CCC(N)C2)c(F)cc2c(=O)c(C(=O)O)cn(/C=C\F)c12 (centres undefined) | 1.56 µg/mL (≈ 4.27 µM) | 1.56 µg/mL (≈ 4.27 µM) | 0.39 µg/mL (≈ 1.07 µM) | 0.0125 µg/mL (≈ 0.0342 µM) |  |
| COc1c(N2CCN(C)CC2)c(F)cc2c(=O)c(C(=O)O)cn(/C=C/F)c12 | 25 µg/mL (≈ 65.9 µM) | 50 µg/mL (≈ 132 µM) | 6.25 µg/mL (≈ 16.5 µM) | 0.2 µg/mL (≈ 0.527 µM) |  |
| O=C(O)c1cn(C2CC2)c2cc(N3CCNCC3)c(F)cc2c1=O [CIPROFLOXACIN] | 0.2 µg/mL (≈ 0.604 µM) | 0.78 µg/mL (≈ 2.35 µM) | 0.2 µg/mL (≈ 0.604 µM) | ≤ 0.0063 µg/mL |  |
| CN1CCN(c2c(F)cc3c(=O)c(C(=O)O)cn(CCF)c3c2F)CC1 [FLEROXACIN] | 1.56 µg/mL (≈ 4.22 µM) | 3.13 µg/mL (≈ 8.47 µM) | 0.39 µg/mL (≈ 1.06 µM) | 0.025 µg/mL (≈ 0.0677 µM) | 185 µM |
